Laboratory results published in patent US11873298B2, “Compounds and uses thereof” (JANSSEN PHARMACEUTICA NV, priority 2017, dated 2024).

Tests used:
SCD5 = biological target: T1, SCD5 (Homo sapiens, UniProt Q86SK9); assay: Growth inhibition of humanized yeast strain expressing SCD5 as sole desaturase; type: cell-based
T1 construct: host or cells: S. cerevisiae ole1Δ strain (W303 pdr1Δ pdr3Δ background), plasmid pRS316 with TDH3 promoter and CYC1 terminator
T1 sequence (Q86SK9 1-330): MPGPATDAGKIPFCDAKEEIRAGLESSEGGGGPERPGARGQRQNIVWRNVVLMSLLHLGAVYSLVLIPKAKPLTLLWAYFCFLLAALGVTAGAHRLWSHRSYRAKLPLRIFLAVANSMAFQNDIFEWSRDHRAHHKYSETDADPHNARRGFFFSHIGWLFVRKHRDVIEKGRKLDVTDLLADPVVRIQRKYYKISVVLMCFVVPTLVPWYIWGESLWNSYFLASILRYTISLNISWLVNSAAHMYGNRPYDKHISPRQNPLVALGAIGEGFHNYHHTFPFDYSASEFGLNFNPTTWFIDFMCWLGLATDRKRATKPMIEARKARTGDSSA
Summary of the method: (§1)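 Measured by optical density at 600 nm, growth of desaturase-dependent yeast (OLE1 deleted; human SCD1, human SCD5 or yeast Ole1 supplied from plasmid) was scored after 24 h (Ole1) or 40 h (SCD1, SCD5) at 30° C. in galactose media lacking uracil with DMSO-delivered compound.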

SCD1 = biological target: T2, SCD1 (Homo sapiens, UniProt O00767); assay: Growth inhibition of humanized yeast strain expressing SCD1 as sole desaturase; type: cell-based
T2 construct: host or cells: S. cerevisiae ole1Δ strain (W303 pdr1Δ pdr3Δ background), plasmid pRS316 with TDH3 promoter and CYC1 terminator
T2 sequence (O00767 1-359): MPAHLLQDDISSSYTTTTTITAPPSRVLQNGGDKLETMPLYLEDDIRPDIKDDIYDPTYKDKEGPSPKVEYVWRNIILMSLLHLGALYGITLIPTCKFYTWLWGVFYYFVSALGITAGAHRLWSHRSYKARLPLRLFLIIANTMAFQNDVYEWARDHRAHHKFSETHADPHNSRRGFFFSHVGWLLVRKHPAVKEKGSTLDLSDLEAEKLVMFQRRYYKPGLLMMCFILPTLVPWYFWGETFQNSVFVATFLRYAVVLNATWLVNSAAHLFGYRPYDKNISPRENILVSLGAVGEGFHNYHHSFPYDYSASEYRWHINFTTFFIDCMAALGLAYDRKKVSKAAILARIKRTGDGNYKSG
Summary of the method: as §1

[1] = growth inhibition of humanized yeast strain expressing human SCD5
[2] = growth inhibition of humanized yeast strain expressing human SCD1
[3] = humanized yeast strain expressing SCD5
[4] = humanized yeast strain expressing SCD1

| SMILES | IC50 (SCD5; humanized yeast strain, 40 h) [µM] | IC50 (SCD1; humanized yeast strain, 40 h) [µM] | other results |
| --- | --- | --- | --- |
| O=C(C1CCC1)N1CCC(c2noc(-c3ccnc(N4CCOCC4)c3)n2)CC1 [Compound 1105] | 0.549 | > 45 | – |
| CC(C)n1ncc2ccc(-c3noc(N4CCn5c(Cl)cnc5C4)n3)cc21 [Compound 805] | 9.36 | > 45 | – |
| CC(C)n1ncc2ccc(-c3nc(C4CCN(CC5CC5)C(=O)C4)no3)cc21 (stereo not drawn) [Compound 1146] | 0.38 | > 45 | – |
| COC(=O)N1CCC(c2noc(-c3ccnc(N4CCOCC4)c3)n2)CC1 [Compound 1106] | 2.96 | > 45 | – |
| COC(=O)N1CCC(c2noc(-c3ccn4cnc(C(C)C)c4c3)n2)CC1 [Compound 1045] | 0.935 | ≥ 45 | – |
| CC(C)N1C(=O)Cc2ccc(-c3noc(C4CCN(C(=O)CC5(C)CC5)CC4)n3)cc21 [Compound 626] | – | – | IC50 (SCD5; [1]): 2.75 µM; IC50 (SCD1; [2]): > 45 µM |
| CC(C)(C)OC(=O)N1CCC(c2nc(N3CCC34COC4)no2)CC1 [Compound 783] | > 45 | > 45 | – |
| Cc1nn(C)c2cc(-c3nc(C4CCN(C(=O)C(C)C)CC4)no3)ccc12 [Compound 938] | > 45 | > 45 | – |
| COC1(C(=O)N2CCC(c3noc(-c4ccc5cnn(C(C)C)c5c4)n3)CC2)CC1 [Compound 799] | 0.01 | > 45 | – |
| CC(C)n1ncc2ccc(-c3noc(N4CCN(C(=O)c5cccc(F)c5)CC4)n3)cc21 [Compound 547] | – | – | IC50 (SCD5; [3]): 44.3 µM; IC50 (SCD1; [4]): > 45 µM |
| COC(=O)N1CCC(c2noc(-c3ccc4cnn(C5CCN(C)C5=O)c4c3)n2)CC1 (stereo not drawn) [Compound 1101] | 16.6 | 27.2 | – |
| C[C@@H]1C[C@H](c2noc(-c3ccc4cnn(C5COC5)c4c3)n2)CCN1C(=O)OC(C)(C)C [Compound 1017] | 0.01 | 17.1 | – |
| O=C(N1CCC(c2noc(-c3ccnc(C4CCOC4)c3)n2)CC1)C1(F)CC1 (stereo not drawn) [Compound 1087] | 0.041 | > 45 | – |
| CC(C)n1ncc2ccc(-c3ccc(C4CCN(C(=O)OC(C)(C)C)C4)nn3)cc21 (stereo not drawn) [Compound 733] | – | – | IC50 (SCD5; [1]): 2.73 µM; IC50 (SCD1; [2]): > 45 µM |
| COC(=O)N1CCC(c2noc(-c3ccc(F)c(N4CCOCC4)c3)n2)CC1 [Compound 1161] | 0.0363 | > 45 | – |
| CCC(=O)N1CCN(c2nc(-c3ccc4cnn(C5CN(C(=O)CC)C5)c4c3)no2)CC1 [Compound 930] | 0.2 | > 45 | – |
| CC(C)C(=O)N1CCC(c2noc(-c3cncc(N4CCC(F)(F)C4)c3)n2)CC1 [Compound 1174] | 10.4 | > 45 | – |
| CC(C)(C)OC(=O)N1CCC(c2nc(-c3cccc(C(=O)C4COC4)c3)no2)CC1 [Compound 796] | 1.59 | > 45 | – |
| O=C(N1CCC(c2noc(-c3cccc(N4CCOCC4)c3)n2)CC1)C1(F)CC1 [Compound 1080] | 0.501 | > 45 | – |
| C=C(F)/C=C/n1cc2ccc(-c3noc(C4CCN(C(=O)OC(C)(C)C)CC4)n3)cc2n1 [Compound 739] | – | – | IC50 (SCD5; [1]): > 45 µM; IC50 (SCD1; [2]): > 45 µM |
| CC(C)(C)OC(=O)N1CCC(c2nc(-c3ccc4cnn(C5CCCOC5)c4c3)no2)CC1 (stereo not drawn) [Compound 720] | – | – | IC50 (SCD5; [1]): 1.97 µM; IC50 (SCD1; [2]): > 45 µM |
| CC(C)n1nc(CCS(C)(=O)=O)c2ccc(-c3noc(C4CCN(C(=O)OC(C)(C)C)CC4)n3)cc21 [Compound 767] | 0.01 | > 45 | – |
| COC(=O)N1CCC(c2noc(-c3cc(Br)c4cnn(C5COC5)c4c3)n2)CC1 [Compound 1043] | 0.011 | > 45 | – |
| O=C(N1CCN(c2noc(-c3ccc4cnn(C5COC5)c4c3)n2)CC(F)(F)C1)C1(F)CC1 [Compound 1057] | 0.023 | > 45 | – |

| SMILES | IC50 (SCD5; humanized yeast strain, 40 h) [µM] | IC50 (SCD1; humanized yeast strain, 40 h) [µM] | other results |
| --- | --- | --- | --- |
| CC(C)n1ncc2ccc(-c3nc(C4CCN(C(=O)c5sccc5Cl)CC4)no3)cc21 [Compound 715] | – | – | IC50 (SCD5; [1]): 0.048 µM; IC50 (SCD1; [2]): > 45 µM |
| O=C(N1CCC(c2noc(-c3ccc4cnn(C5COC5)c4c3)n2)CC1)C12CC(F)(C1)C2 [Compound 895] | 0.01 | > 45 | – |
| O=C(N1CCN(c2noc(-c3ccnc(NC4COC4)c3)n2)CC1)C1(F)CC1 [Compound 1148] | 19.4 | > 45 | – |
| O=C(C1CCC1)N1CCN(c2nnc(-c3ccc4cnn(C5COC5)c4c3)o2)CC1 [Compound 996] | 5.04 | > 45 | – |
| COC(=O)N1CCC(c2nc(-c3ccc4cnn(C5CN(C(=O)OC(C)(C)C)C5)c4c3)no2)CC1 [Compound 951] | > 45 | > 45 | – |
| COC1(C(=O)N2CCC(C)(c3nc(-c4ccc5cnn(C(C)C)c5c4)no3)CC2)CC1 [Compound 748] | 2.14 | > 45 | – |
| CC(C)(C)OC(=O)N1CCC(c2noc(-c3cncc(C4CCOC4)c3)n2)CC1 (stereo not drawn) [Compound 1190] | 0.06 | > 45 | – |
| CC(C)(C)OC(=O)N1CCC(c2nc(-c3ccn4cnc(I)c4c3)no2)CC1 [Compound 858] | 0.262 | > 45 | – |
| CC(C)(C(=O)N1CCC(c2noc(-c3ccnc(C4CCOC4)c3)n2)CC1)C(F)(F)F (stereo not drawn) [Compound 1175] | 0.21 | > 45 | – |
| C=C(F)/C=C/n1ncc2ccc(-c3noc(C4CCN(C(=O)OC(C)(C)C)CC4)n3)cc21 [Compound 738] | – | – | IC50 (SCD5; [1]): > 45 µM; IC50 (SCD1; [2]): > 45 µM |
| CC(C)(C)OC(=O)N1CCC(c2noc(-c3ccn(C4COC4)c(=O)c3)n2)CC1 [Compound 1121] | 15.5 | > 45 | – |
| O=C(N1CCN(c2nnc(-c3ccc4cnn(C5COC5)c4c3)o2)CC1)C12CC(C1)C2 [Compound 994] | > 45 | > 45 | – |
| CC(=O)N1CC(n2ncc3ccc(-c4nc(N5CCN(C(=O)OC(C)(C)C)CC5)no4)cc32)C1 [Compound 915] | 10.1 | > 45 | – |
| O=C(N1CCC(c2noc(-c3ccc4cnn(C5CCOC5)c4c3)n2)CC1)C1(F)CCC1 (stereo not drawn) [Compound 1028] | 0.01 | 0.953 | – |
| O=C(N1CCC(c2noc(-c3ccc4cnn([C@@H]5CCOC5)c4c3)n2)CC1)C1(F)CC1 [Compound 1096] | 0.00101 | > 45 | – |
| Clc1cnc2n1CCN(c1noc(-c3ccc4cnn(C5COC5)c4c3)n1)C2 [Compound 896] | 0.01 | > 45 | – |
| CC1(OC(=O)N2CCN(c3noc(-c4ccnc(NC5COC5)c4)n3)CC2)CC1 [Compound 1008] | 2.02 | > 45 | – |
| O=C(c1ccccc1)N1CCN(c2noc(-c3ccc4cnn(C5COC5)c4c3)n2)CC1 [Compound 712] | – | – | IC50 (SCD5; [1]): 0.016 µM; IC50 (SCD1; [2]): > 45 µM |
| CC(C)n1ncc2ccc(-c3noc(C4CCN(C(=O)CNC(=O)C5CC5)CC4(F)F)n3)cc21 (stereo not drawn) [Compound 579] | – | – | IC50 (SCD5; [3]): > 45 µM; IC50 (SCD1; [4]): > 45 µM |
| O=C(CC1CC1)N1CCN(c2nc(-c3ccc4cnn(C5COC5)c4c3)no2)CC1 [Compound 659] | – | – | IC50 (SCD5; [1]): 4.2 µM; IC50 (SCD1; [2]): > 45 µM |
| C[C@@H]1C[C@@H](c2noc(-c3ccc4cnn(C5COC5)c4c3)n2)CCN1C(=O)C1(F)CC1 [Compound 1065] | 0.000386 | > 45 | – |
| COCC(COC)n1ncc2ccc(-c3nc(C4CCN(C(=O)OC)CC4)no3)cc21 [Compound 840] | 20.7 | > 45 | – |
| CC(C)(C)OC(=O)N1CCC(c2nc(-c3ccnc(C4CCOC4)c3)no2)CC1 (stereo not drawn) [Compound 992] | 0.081 | > 45 | – |
| COC(=O)N1CCC(c2noc(-c3ccc(N4CCOCC4)cc3)n2)CC1 [Compound 1163] | > 45 | > 45 | – |
